Assay [1] addresses PI3Kγ (p110γ) Recombinant Human Protein (Homo sapiens (Human), UniProt P48736). The assay can be described thus: PI3K-γ Scintillation Proximity Assay. The class given is biochemical. Particulars: 20 μM PIP2, 2 μM ATP, 13 nM PI3Kγ, 120 min; read-out: PI3K-gamma SPA IC50. As to the method: [γ-^33P]ATP (10 mCi/mL) and Wheat Germ Agglutinin (WGA) YSi SPA Scintillation Beads was purchased from Perkin-Elmer (Waltham, Mass.). […] PI3Kγ (p110γ) Recombinant Human Protein was purchased from Life technology (Grand Island, N.Y.). ATP, MgCl2, DTT, EDTA, MOPS and CHAPS were purchased from Sigma-Aldrich (St. Louis, Mo.).
The kinase reaction was conducted in polystyrene 384-well Greiner Bio-one white plate from Thermo Fisher Scientific in a final volume of 25 μL. Inhibitors were first diluted serially in DMSO and added to the plate wells before the addition of other reaction components. The final concentration of DMSO in the assay was 2%. The PI3Kγ assay was carried out at room temperature in 20 mM MOPS, pH 6.7, 10 mM MgCl2, 5 mM DTT and CHAPS 0.03%. Reactions were initiated by the addition of ATP, the final reaction mixture consisted of 20 μM PIP2, 2 μM ATP, 0.5 μCi [γ-^33P] […] The final concentration of SPA beads is 1.0 mg/mL. After the plate sealing, plates were shaken overnight at room temperature and centrifuged at 1500 rpm for 10 min, the radioactivity of the product was determined by scintillation counting on Topcount (Perkin-Elmer). IC50 determination was performed by fitting the curve of percent of the solvent control activity versus the log of the inhibitor concentration using the GraphPad Prism 6.0 software.

Assay [2] addresses PI3Kδ (p110δ/p85α) Recombinant Human Protein (Homo sapiens (Human), UniProt O00329). Kind of assay: PI3Kδ Scintillation Proximity Assay. Particulars: 20 μM PIP2, 2 μM ATP, 3.4 nM PI3Kδ, 120 min; read-out: PI3K-delta SPA IC50. The class given is biochemical. The text has this: [γ-^33P]ATP (10 mCi/mL) and Wheat Germ Agglutinin (WGA) YSi SPA Scintillation Beads was purchased from Perkin-Elmer (Waltham, Mass.). Lipid kinase substrate, D-myo-Phosphatidylinositol 4,5-bisphosphate (PtdIns(4,5)P2)D (+)-sn-1,2-di-O-octanoylglyceryl, 3-O-phospho linked (PIP2), CAS 204858-53-7, was purchased from Echelon Biosciences (Salt Lake City, Utah). PI3Kδ (p110δ/p85α) Recombinant Human Protein was purchased from Eurofins (St Charles, Mo.). ATP, MgCl2, DTT, EDTA, MOPS and CHAPS were purchased from Sigma-Aldrich (St. Louis, Mo.).
The kinase reaction was conducted in polystyrene 384-well Greiner Bio-one white plate from Thermo Fisher Scientific in a final volume of 25 μL. Inhibitors were first diluted serially in DMSO and added to the plate wells before the addition of other reaction components. The final concentration of DMSO in the assay was 2%. The PI3Kδ assay was carried out at room temperature in 20 mM MOPS, pH 6.7, 10 mM MgCl2, 5 mM DTT and CHAPS 0.03%. Reactions were initiated by the addition of ATP, the final reaction mixture consisted of 20 μM PIP2, 2 μM ATP, 0.5 μCi [γ-^33P] ATP, 3.4 nM PI3Kδ. Reactions were incubated for 120 min and terminated by the addition of 40 μL SPA beads suspended in quench buffer: 163 mM potassium phosphate pH 7.8, 20% glycerol, 25 mM EDTA. The final concentration of SPA beads is 1.0 mg/mL. After the plate sealing, plates were shaken overnight at room temperature and centrifuged at 1500 rpm for 10 min, the radioactivity of the product was determined by scintillation counting on Topcount (Perkin-Elmer). IC50 determination was performed by fitting the curve of percent of the solvent control activity versus the log of the inhibitor concentration using the GraphPad Prism 6.0 software.

Consider 15 molecules from patent publication US9586949B2, “Aza-heteroaryl compounds as PI3K-gamma inhibitors” (Incyte Corporation, priority 2015, dated 2017).

Counter-ions that a name gives are not always drawn.

Chain of PI3Kγ (p110γ) Recombinant Human Protein (P48736 whole entry): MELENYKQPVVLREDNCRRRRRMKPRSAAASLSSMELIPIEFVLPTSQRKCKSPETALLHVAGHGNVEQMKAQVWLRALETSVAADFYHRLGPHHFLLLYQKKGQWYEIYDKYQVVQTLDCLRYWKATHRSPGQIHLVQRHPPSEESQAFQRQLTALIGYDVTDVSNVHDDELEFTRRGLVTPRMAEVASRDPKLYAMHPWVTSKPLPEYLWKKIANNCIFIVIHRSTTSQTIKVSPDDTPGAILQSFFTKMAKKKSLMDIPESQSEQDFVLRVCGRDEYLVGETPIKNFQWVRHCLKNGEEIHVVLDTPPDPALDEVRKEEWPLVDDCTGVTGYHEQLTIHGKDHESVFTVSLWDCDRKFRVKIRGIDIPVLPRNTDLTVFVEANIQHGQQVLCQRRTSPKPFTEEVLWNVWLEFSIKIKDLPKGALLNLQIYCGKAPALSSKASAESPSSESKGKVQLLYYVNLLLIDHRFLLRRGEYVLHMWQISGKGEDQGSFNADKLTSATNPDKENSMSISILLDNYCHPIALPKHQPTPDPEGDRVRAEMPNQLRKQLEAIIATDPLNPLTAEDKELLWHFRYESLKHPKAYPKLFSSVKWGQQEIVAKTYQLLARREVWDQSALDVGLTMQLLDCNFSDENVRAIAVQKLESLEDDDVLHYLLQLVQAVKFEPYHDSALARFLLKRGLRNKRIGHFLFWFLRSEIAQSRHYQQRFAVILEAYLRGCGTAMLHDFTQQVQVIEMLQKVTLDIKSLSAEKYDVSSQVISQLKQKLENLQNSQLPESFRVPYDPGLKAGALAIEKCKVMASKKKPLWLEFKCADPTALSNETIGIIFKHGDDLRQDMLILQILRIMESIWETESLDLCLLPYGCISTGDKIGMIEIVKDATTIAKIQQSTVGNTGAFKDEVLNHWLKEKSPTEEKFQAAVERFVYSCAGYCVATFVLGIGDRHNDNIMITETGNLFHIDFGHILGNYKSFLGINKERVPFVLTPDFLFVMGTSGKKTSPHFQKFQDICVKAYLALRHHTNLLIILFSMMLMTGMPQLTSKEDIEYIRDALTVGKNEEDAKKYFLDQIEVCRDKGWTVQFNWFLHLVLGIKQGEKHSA
Chain of PI3Kδ (p110δ/p85α) Recombinant Human Protein (O00329 whole entry): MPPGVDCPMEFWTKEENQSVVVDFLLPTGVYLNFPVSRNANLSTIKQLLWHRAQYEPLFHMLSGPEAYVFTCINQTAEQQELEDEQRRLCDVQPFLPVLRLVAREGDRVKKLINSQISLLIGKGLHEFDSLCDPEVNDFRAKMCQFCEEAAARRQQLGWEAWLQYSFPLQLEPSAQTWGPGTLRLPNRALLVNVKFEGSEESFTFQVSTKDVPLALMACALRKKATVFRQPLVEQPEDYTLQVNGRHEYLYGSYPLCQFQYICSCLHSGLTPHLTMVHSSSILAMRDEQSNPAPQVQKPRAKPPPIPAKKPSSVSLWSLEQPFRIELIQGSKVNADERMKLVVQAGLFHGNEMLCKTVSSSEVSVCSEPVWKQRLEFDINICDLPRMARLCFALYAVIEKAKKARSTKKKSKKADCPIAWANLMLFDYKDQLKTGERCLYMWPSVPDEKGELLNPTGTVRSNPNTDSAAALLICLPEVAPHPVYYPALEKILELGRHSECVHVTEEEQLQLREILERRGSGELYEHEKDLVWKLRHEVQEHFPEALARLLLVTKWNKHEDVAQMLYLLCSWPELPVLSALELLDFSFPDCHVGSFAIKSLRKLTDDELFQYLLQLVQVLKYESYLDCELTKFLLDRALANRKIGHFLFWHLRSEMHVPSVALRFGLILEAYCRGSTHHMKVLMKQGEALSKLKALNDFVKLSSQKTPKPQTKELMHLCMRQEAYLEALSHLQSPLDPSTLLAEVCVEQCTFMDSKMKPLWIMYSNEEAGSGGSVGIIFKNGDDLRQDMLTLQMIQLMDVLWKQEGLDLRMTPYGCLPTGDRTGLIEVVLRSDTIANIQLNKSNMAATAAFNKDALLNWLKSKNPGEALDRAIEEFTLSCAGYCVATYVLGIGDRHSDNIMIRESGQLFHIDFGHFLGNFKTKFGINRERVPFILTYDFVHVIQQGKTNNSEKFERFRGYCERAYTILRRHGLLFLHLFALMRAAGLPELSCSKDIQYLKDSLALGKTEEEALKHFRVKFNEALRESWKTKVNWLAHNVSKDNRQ
Chain of PI3Kδ (p110δ/p85α) Recombinant Human Protein (P27986 whole entry partner): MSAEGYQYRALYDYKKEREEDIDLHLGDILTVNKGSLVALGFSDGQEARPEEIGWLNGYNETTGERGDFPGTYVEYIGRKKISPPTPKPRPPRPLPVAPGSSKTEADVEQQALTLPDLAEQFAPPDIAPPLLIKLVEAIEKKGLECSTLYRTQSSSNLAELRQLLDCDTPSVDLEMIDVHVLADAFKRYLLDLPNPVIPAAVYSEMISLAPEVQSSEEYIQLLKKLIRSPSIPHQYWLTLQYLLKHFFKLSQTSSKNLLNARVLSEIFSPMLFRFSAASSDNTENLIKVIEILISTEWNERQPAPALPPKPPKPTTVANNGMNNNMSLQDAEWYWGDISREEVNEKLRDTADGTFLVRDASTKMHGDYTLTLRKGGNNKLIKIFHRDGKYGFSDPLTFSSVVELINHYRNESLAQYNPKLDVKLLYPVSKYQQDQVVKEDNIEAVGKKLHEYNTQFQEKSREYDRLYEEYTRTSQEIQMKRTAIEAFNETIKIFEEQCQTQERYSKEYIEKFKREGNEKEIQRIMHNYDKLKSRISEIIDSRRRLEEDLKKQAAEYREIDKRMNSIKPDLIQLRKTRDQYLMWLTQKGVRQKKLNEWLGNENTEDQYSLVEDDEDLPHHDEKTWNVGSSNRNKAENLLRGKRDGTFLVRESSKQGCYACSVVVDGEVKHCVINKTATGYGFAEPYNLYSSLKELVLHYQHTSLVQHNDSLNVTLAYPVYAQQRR

For the molecule `COc1cncc(-c2ccc3nc(-c4ncc[nH]4)oc3c2)c1` [Example 1, 2-(1H-Imidazol-2-yl)-6-(5-methoxypyridin-3-yl)benzo[d]oxazole trifluoroacetate], the IC50 in assay [1] was below 1 µM; in assay [2] it was below 5 µM.

For the molecule `COc1cncc(-c2ccc3nc(-c4cnc[nH]4)oc3c2)c1` [Example 2, 2-(1H-Imidazol-5-yl)-6-(5-methoxypyridin-3-yl)benzo[d]oxazole trifluoroacetate], the IC50 in assay [1] and in assay [2] was below 5 µM throughout.

In the case of `COc1cncc(-c2ccc3nc(-c4ccc[nH]4)oc3c2)c1` [Example 3, 6-(5-Methoxypyridin-3-yl)-2-(1H-pyrrol-2-yl)benzo[d]oxazole trifluoroacetate], the IC50 in assay [1] and in assay [2] was below 5 µM throughout.

Regarding `COc1cncc(-c2ccc3nc(-c4nc5ccccc5[nH]4)oc3c2)c1` [Example 4, 2-(1H-Benzo[d]imidazol-2-yl)-6-(5-methoxypyridin-3-yl)benzo[d]oxazole trifluoroacetate], the IC50 was below 0.25 µM in assay [1] and below 5 µM in assay [2].

Take `COc1cncc(-c2ccc3nc(-c4cc5ccccc5[nH]4)oc3c2)c1` [Example 5, 2-(1H-Indol-2-yl)-6-(5-methoxypyridin-3-yl)benzo[d]oxazole trifluoroacetate]: the IC50 in assay [1] was below 0.25 µM; in assay [2] it was below 1 µM.

Turning to `COc1cncc(-c2ccc3nc(-c4nc5ccccc5[nH]4)sc3c2)c1` [Example 6, 2-(1H-Benzo[d]imidazol-2-yl)-6-(5-methoxypyridin-3-yl)benzo[d]thiazole trifluoroacetate], the IC50 in assay [1] was above 5 µM; in assay [2], at least 5 µM.

As to `COc1cncc(-c2ccc3nc(-c4nc5ccccc5[nH]4)ccc3c2)c1` [Example 7, 2-(1H-Benzo[d]imidazol-2-yl)-6-(5-methoxypyridin-3-yl)quinoline], the values for the IC50 in assay [1] and in assay [2] were below 1 µM and at least 5 µM, respectively.

`COc1cncc(-c2ccc3nc(-c4nc5ccc(Br)cc5[nH]4)oc3c2)c1` [Example 8, 2-(6-Bromo-1H-benzo[d]imidazol-2-yl)-6-(5-methoxypyridin-3-yl)benzo[d]oxazole]: the IC50 in assay [1] is below 1 µM.

For the molecule `COc1cncc(-c2ccc3nc(-c4nc5cc(F)ccc5[nH]4)oc3c2)c1` [Example 10, 2-(5-Fluoro-1H-benzo[d]imidazol-2-yl)-6-(5-methoxypyridin-3-yl)benzo[d]oxazole], the IC50 is below 1 µM in assay [1] and at least 5 µM in assay [2].

`COc1cncc(-c2ccc3nc(-c4nc5cc(C)ccc5[nH]4)oc3c2)c1` [Example 11, 6-(5-Methoxypyridin-3-yl)-2-(5-methyl-1H-benzo[d]imidazol-2-yl)benzo[d]oxazole]: the IC50 was below 0.25 µM in assay [1] and below 5 µM in assay [2].

As for `COc1cncc(-c2ccc3nc(-c4nc5c(C)cccc5[nH]4)oc3c2)c1` [Example 12, 6-(5-Methoxypyridin-3-yl)-2-(4-methyl-1H-benzo[d]imidazol-2-yl)benzo[d]oxazole], the IC50 in assay [1] is below 0.25 µM; in assay [2], at least 5 µM.

Regarding `Brc1ccc2nc(-c3nc4ccccc4[nH]3)oc2c1` [Example 13, 2-(1H-Benzo[d]imidazol-2-yl)-6-bromobenzo[d]oxazole], the IC50 in assay [1] was below 5 µM; in assay [2] it was at least 5 µM.

Turning to `Oc1cncc(-c2ccc3nc(-c4nc5ccccc5[nH]4)oc3c2)c1` [Example 14, 5-(2-(1H-Benzo[d]imidazol-2-yl)benzo[d]oxazol-6-yl)pyridin-3-ol], the IC50 is below 0.25 µM in assay [1] and below 5 µM in assay [2].

Turning to `CC(C)Oc1cncc(-c2ccc3nc(-c4nc5ccccc5[nH]4)oc3c2)c1` [Example 15, 2-(1H-Benzo[d]imidazol-2-yl)-6-(5-isopropoxypyridin-3-yl)benzo[d]oxazole], the values for the IC50 in assay [1] and in assay [2] were below 1 µM and below 5 µM, respectively.

As to `FC(F)Oc1cncc(-c2ccc3nc(-c4nc5ccccc5[nH]4)oc3c2)c1` [Example 16, 2-(1H-Benzo[d]imidazol-2-yl)-6-(5-(difluoromethoxy)pyridin-3-yl)benzo[d]oxazole], the results for the IC50 in assay [1] and in assay [2] were below 0.25 µM and below 1 µM, respectively.
